Measured values as given in patent US12319663B2, “Alkene-containing amide compound and application thereof” (SHENYANG SINOCHEM AGROCHEMICALS R&D CO., LTD., priority 2019, dated 2025).

How the values were obtained:
Format in all cases: in vivo
piemarker = assay: Herbicidal activity, post-emergence stem and leaf spray, greenhouse: piemarker control
Experimental: (§1) Seeds of broadleaf weeds (zinnia and piemarker) or grassy weeds (green bristlegrass and barnyard grass) are respectively sown in a paper cup having a diameter of 7 cm and containing nutrient soil; after sowing, the seeds are covered with 1 cm of soil; the soil is pressed and watered, and then the seeds are cultivated in a greenhouse according to a conventional method; and stems and leaves are sprayed after 2-3 leaf stage of the weeds.
(§2) After the original medicinal acetone was dissolved, the test requires to use 1% of Tween 80 to stand in running water to prepare the solution to be tested with a required concentration. According to the design dose of the test, spray treatment was carried out on a track-type crop sprayer (designed and produced by British Engineer Research Ltd.) (spray pressure is 1.95 kg/cm^2, spray volume is 50 L/hm^2 and track speed is 1.48 km/h). The test was repeated for three times. The test material was treated and then placed in an operation hall. The medicinal liquid was naturally dried in the shade, and then was placed in a greenhouse and managed according to the conventional method, The response of the weeds to the drug was observed and recorded, After treatment, the control effects of the test drug on the weeds were visually inspected regularly, expressed by 0-100%. “0” represents no control effect and “100%” represents complete killing.
According to the above test method, part of the compounds of the formula I and KC are selected for activity test of controlling the piemarker. […]

zinnia = assay: Herbicidal activity, post-emergence stem and leaf spray, greenhouse: zinnia control; settings: visual, 0 = no control effect, 100% = complete killing
Experimental: as §1, §2
According to the above test method, part of the compounds of the formula I and KC are selected for activity test of controlling the zinnia.

barnyard grass = assay: Herbicidal activity, post-emergence stem and leaf spray, greenhouse: barnyard grass control
Experimental: as §1, §2
According to the above test method, part of the compounds of the formula I and KC are selected for the activity test of controlling the barnyard grass.

[1] = dose 37.5 g a.i./hm2, post-emergence stem and leaf spray
[2] = dose 150 g a.i./hm2, post-emergence stem and leaf spray
[3] = dose 600 g a.i./hm2, post-emergence stem and leaf spray

Row | Structure (SMILES) | Piemarker control activity (after emergence, control effect %) (piemarker; [1]) | Piemarker control activity (after emergence, control effect %) (piemarker; [2]) | Piemarker control activity (after emergence, control effect %) (piemarker; [3]) | Zinnia control activity (after emergence, control effect %) (zinnia; dose 37.5 g a.i./hm^2) | Zinnia control activity (after emergence, control effect %) (zinnia; dose 150 g a.i./hm^2) | Zinnia control activity (after emergence, control effect %) (zinnia; dose 600 g a.i./hm^2) | Barnyard grass control activity (after emergence, control effect %) (barnyard grass; [1]) | Barnyard grass control activity (after emergence, control effect %) (barnyard grass; [2]) | Barnyard grass control activity (after emergence, control effect %) (barnyard grass; [3])
1 | Cn1nnnc1N(C(=O)/C=C/c1ccccc1)C(=O)c1ccc(C(F)(F)F)cc1S(C)(=O)=O [Compound 1-1] | 100% | 100% | 100% | 100% | 100% | 100% | – | – | –
2 | Cn1nnnc1N(C(=O)/C=C/c1ccc2c(c1)OCO2)C(=O)c1ccc(C(F)(F)F)cc1S(C)(=O)=O [Compound 1-8] | 100% | 100% | 100% | 90% | 95% | 100% | – | – | –
3 | Cc1c(S(C)(=O)=O)ccc(C(=O)N(C(=O)/C=C/c2ccccc2)c2nnnn2C)c1Cl [Compound 1-19] | 90% | 90% | 98% | 95% | 95% | 100% | – | – | –
4 | COc1c(S(C)(=O)=O)ccc(C(=O)N(C(=O)/C=C/c2ccccc2)c2nnnn2C)c1C [Compound 1-95] | – | – | – | 100% | 100% | 100% | – | – | –
5 | Cc1c(C(=O)N(C(=O)/C=C/c2ccccc2)c2nnnn2C)ccc(S(C)(=O)=O)c1OCC1CCCO1 (stereo not drawn) [Compound 1-100] | – | – | – | – | – | – | 100% | 100% | 100%
6 | CCCOc1c(S(C)(=O)=O)ccc(C(=O)N(C(=O)/C=C/c2ccccc2)c2nnnn2C)c1C [Compound 1-296] | – | – | – | – | – | – | 100% | 100% | 100%
7 | Cc1c(C(=O)N(C(=O)C2=CCCCC2)c2nnnn2C)ccc(S(C)(=O)=O)c1OCC(F)(F)F [Compound 2-13] | – | – | – | 100% | 100% | 100% | 80% | 100% | 100%
8 | COCCOc1c(S(C)(=O)=O)ccc(C(=O)N(C(=O)C2=CCCCC2)c2nnnn2C)c1C [Compound 2-19] | – | – | – | – | – | – | 90% | 100% | 100%
9 | COCc1c(S(C)(=O)=O)ccc(C(=O)N(C(=O)C2=CCCC2)c2nnnn2C)c1Cl [Compound 2-105] | – | – | – | – | – | – | 90% | 90% | 100%
10 | COCc1c(S(C)(=O)=O)ccc(C(=O)N(C(=O)C2CC=CC2)c2nnnn2C)c1Cl [Compound 2-106] | – | – | – | 100% | 100% | 100% | – | – | –
11 | Cn1nnnc1N(C(=O)C1=CCCCC1)C(=O)c1ccc(S(C)(=O)=O)cc1Cl [Compound 2-269] | 90% | 95% | 100% | – | – | – | 80% | 90% | 95%
